Laboratory results taken from patent US20260262643A1, “HERBICIDAL BENZOXAZINES” (FMC CORPORATION, priority 2022, published 2026).

Legend:
barnyardgrass [1] = test: Test C preemergence; format: in vivo, Echinochloa crusgalli; settings: 0 to 100 scale (0 no effect, 100 complete control)
How it was run: (§1)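 Test material, in non-phytotoxic solvent with surfactant, was sprayed on the soil directly after seeding (preemergence) or on young plants of 2–10 cm with one to two leaves (postemergence). Greenhouse, 10 days; 0–100 visual control scale.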

blackgrass [2] = test: Test C preemergence; format: in vivo, Alopecurus myosuroides; settings: 0 to 100 scale (0 no effect, 100 complete control)
How it was run: as §1

corn [3] = test: Test C preemergence; format: in vivo, Zea mays; settings: 0 to 100 scale (0 no effect, 100 complete control)
How it was run: as §1

green foxtail [4] = test: Test C preemergence; format: in vivo, Setaria viridis; settings: 0 to 100 scale (0 no effect, 100 complete control)
How it was run: as §1

kochia [5] = test: Test C preemergence; format: in vivo, Bassia scoparia; settings: 0 to 100 scale (0 no effect, 100 complete control)
How it was run: as §1

oat, wild [6] = test: Test C preemergence; format: in vivo, Avena fatua; settings: 0 to 100 scale (0 no effect, 100 complete control)
How it was run: as §1

pigweed, palmer [7] = test: Test C preemergence; format: in vivo, Amaranthus palmeri; settings: 0 to 100 scale (0 no effect, 100 complete control)
How it was run: as §1

ragweed [8] = test: Test C preemergence; format: in vivo, Ambrosia artemisiifolia; settings: 0 to 100 scale (0 no effect, 100 complete control)
How it was run: as §1

ryegrass, Italian [9] = test: Test C preemergence; format: in vivo, Lolium multiflorum; settings: 0 to 100 scale (0 no effect, 100 complete control)
How it was run: as §1

soybean [10] = test: Test C preemergence; format: in vivo, Glycine max; settings: 0 to 100 scale (0 no effect, 100 complete control)
How it was run: as §1

wheat [11] = test: Test C preemergence; format: in vivo, Triticum aestivum; settings: 0 to 100 scale (0 no effect, 100 complete control)
How it was run: as §1

barnyardgrass [12] = test: Test C postemergence; format: in vivo, Echinochloa crusgalli; settings: 10 days
How it was run: as §1

blackgrass [13] = test: Test C postemergence; format: in vivo, Alopecurus myosuroides; settings: 10 days
How it was run: as §1

corn [14] = test: Test C postemergence; format: in vivo, Zea mays; settings: 10 days
How it was run: as §1

green foxtail [15] = test: Test C postemergence; format: in vivo, Setaria viridis; settings: 10 days
How it was run: as §1

kochia [16] = test: Test C postemergence; format: in vivo, Bassia scoparia; settings: 10 days
How it was run: as §1

oat, wild [17] = test: Test C postemergence; format: in vivo, Avena fatua; settings: 10 days
How it was run: as §1

pigweed, palmer [18] = test: Test C postemergence; format: in vivo, Amaranthus palmeri; settings: 10 days
How it was run: as §1

ragweed [19] = test: Test C postemergence; format: in vivo, Ambrosia artemisiifolia; settings: 10 days
How it was run: as §1

ryegrass, Italian [20] = test: Test C postemergence; format: in vivo, Lolium multiflorum; settings: 10 days
How it was run: as §1

soybean [21] = test: Test C postemergence; format: in vivo, Glycine max; settings: 10 days
How it was run: as §1

wheat [22] = test: Test C postemergence; format: in vivo, Triticum aestivum; settings: 10 days
How it was run: as §1

galium = test: Test C postemergence; format: in vivo, Galium aparine; settings: 10 days
How it was run: as §1

horseweed = test: Test C postemergence; format: in vivo, Erigeron canadensis; settings: 10 days
How it was run: as §1

barnyardgrass [23] = test: Test D flooded paddy test; format: in vivo, Echinochloa crus-galli; settings: 250 g ai/ha, applied to paddy water, visual rating after 13 to 14 days, scale 0 to 100 (0 no effect, 100 complete control)
How it was run: (§2)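 Plants grown to the 2-leaf stage; pots flooded to 3 cm above soil at treatment and held at that depth throughout. Test compounds applied directly to the paddy water. After 13 to 14 days in a greenhouse, response was rated visually versus controls on a 0 (no effect) to 100 (complete control) scale.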

ducksalad = test: Test D flooded paddy test; format: in vivo, Heteranthera limosa; settings: 250 g ai/ha, applied to paddy water, visual rating after 13 to 14 days, scale 0 to 100 (0 no effect, 100 complete control)
How it was run: as §2

rice = test: Test D flooded paddy test; format: in vivo, Oryza sativa; settings: 250 g ai/ha, applied to paddy water, visual rating after 13 to 14 days, scale 0 to 100 (0 no effect, 100 complete control)
How it was run: as §2

sedge, umbrella = test: Test D flooded paddy test; format: in vivo, Cyperus difformis; settings: 250 g ai/ha, applied to paddy water, visual rating after 13 to 14 days, scale 0 to 100 (0 no effect, 100 complete control)
How it was run: as §2

[24] = Preemergence, 500 g ai/ha, visual rating after 10 days
[25] = Test C, preemergence, 125 g ai/ha
[26] = 125 g ai/ha, postemergence, 0 to 100 scale, 0 no effect, 100 complete control
[27] = Postemergence, 500 g ai/ha, visual 0 to 100 scale (0 no effect, 100 complete control)

Q: For Cc1cc(-n2cnc(C(C)C)n2)cc(C(=O)N2C[C@H](C)Oc3c(Cl)cccc32)c1Cl [Compound 220], which “Plant response rating, Barnyardgrass” value (barnyardgrass [1]; [24]) is on record?
A: Its value is 80.

Q: What about the “Barnyardgrass plant response rating” value (barnyardgrass [1]; [25]) of the same molecule?
A: The value was 50.

Q: And the “Plant response rating, Blackgrass” value (blackgrass [2]; [24])?
A: The value was 70.

Q: And the “Blackgrass plant response rating” value (blackgrass [2]; [25])?
A: Its value is 40.

Q: And the “Plant response rating, Corn” value (corn [3]; [24])?
A: Its value is 10.

Q: And the “Corn plant response rating” value (corn [3]; [25])?
A: The value was 0.

Q: And the “Plant response rating, Foxtail, Green” value (green foxtail [4]; [24])?
A: The value was 100.

Q: What about the “Foxtail, Green plant response rating” value (green foxtail [4]; [25]) of the same molecule?
A: The value was 100.

Q: What about the “Plant response rating, Kochia” value (kochia [5]; [24]) of the same molecule?
A: Its value is 90.

Q: And the “Kochia plant response rating” value (kochia [5]; [25])?
A: Its value is 80.

Q: What about the “Plant response rating, Oat, Wild” value (oat, wild [6]; [24]) of the same molecule?
A: Its value is 70.

Q: And the “Oat, Wild plant response rating” value (oat, wild [6]; [25])?
A: Its value is 60.

Q: And the “Plant response rating, Pigweed, Palmer” value (pigweed, palmer [7]; [24])?
A: Its value is 100.

Q: And the “Pigweed, Palmer plant response rating” value (pigweed, palmer [7]; [25])?
A: The value was 90.

Q: And the “Plant response rating, Ragweed” value (ragweed [8]; [24])?
A: Its value is 0.

Q: And the “Ragweed plant response rating” value (ragweed [8]; [25])?
A: Its value is 0.

Q: And the “Plant response rating, Ryegrass, Italian” value (ryegrass, Italian [9]; [24])?
A: Its value is 90.

Q: And the “Ryegrass, Italian plant response rating” value (ryegrass, Italian [9]; [25])?
A: The value was 80.

Q: And the “Plant response rating, Soybean” value (soybean [10]; [24])?
A: The value was 80.

Q: What about the “Soybean plant response rating” value (soybean [10]; [25]) of the same molecule?
A: The value was 0.

Q: And the “Plant response rating, Wheat” value (wheat [11]; [24])?
A: Its value is 70.

Q: And the “Wheat plant response rating” value (wheat [11]; [25])?
A: Its value is 20.

Q: What about the “Plant response rating, Barnyardgrass” value (barnyardgrass [12]; [26]) of the same molecule?
A: Its value is 30.

Q: What about the “Plant response rating, Barnyardgrass” value (barnyardgrass [12]; [27]) of the same molecule?
A: Its value is 90.

Q: And the “Plant response rating, Blackgrass” value (blackgrass [13]; [26])?
A: Its value is 40.

Q: What about the “Plant response rating, Blackgrass” value (blackgrass [13]; [27]) of the same molecule?
A: Its value is 50.

Q: And the “Plant response rating, Corn” value (corn [14]; [26])?
A: Its value is 10.

Q: And the “Plant response rating, Corn” value (corn [14]; [27])?
A: Its value is 20.

Q: What about the “Plant response rating, Foxtail, Green” value (green foxtail [15]; [26]) of the same molecule?
A: Its value is 20.

Q: What about the “Plant response rating, Foxtail, Green” value (green foxtail [15]; [27]) of the same molecule?
A: The value was 50.

Q: What about the “Plant response rating, Kochia” value (kochia [16]; [26]) of the same molecule?
A: Its value is 70.

Q: What about the “Plant response rating, Kochia” value (kochia [16]; [27]) of the same molecule?
A: Its value is 90.

Q: What about the “Plant response rating, Oat, Wild” value (oat, wild [17]; [26]) of the same molecule?
A: Its value is 0.

Q: And the “Plant response rating, Oat, Wild” value (oat, wild [17]; [27])?
A: The value was 0.

Q: What about the “Plant response rating, Pigweed, Palmer” value (pigweed, palmer [18]; [26]) of the same molecule?
A: Its value is 90.

Q: What about the “Plant response rating, Pigweed, Palmer” value (pigweed, palmer [18]; [27]) of the same molecule?
A: The value was 100.

Q: And the “Plant response rating, Ragweed” value (ragweed [19]; [26])?
A: The value was 0.

Q: What about the “Plant response rating, Ragweed” value (ragweed [19]; [27]) of the same molecule?
A: Its value is 0.

Q: And the “Plant response rating, Ryegrass, Italian” value (ryegrass, Italian [20]; [26])?
A: Its value is 30.

Q: What about the “Plant response rating, Ryegrass, Italian” value (ryegrass, Italian [20]; [27]) of the same molecule?
A: The value was 70.

Q: And the “Plant response rating, Soybean” value (soybean [21]; [26])?
A: The value was 100.

Q: And the “Plant response rating, Soybean” value (soybean [21]; [27])?
A: Its value is 100.

Q: And the “Plant response rating, Wheat” value (wheat [22]; [26])?
A: Its value is 20.

Q: What about the “Plant response rating, Wheat” value (wheat [22]; [27]) of the same molecule?
A: The value was 20.

Q: What about the “Plant response rating, Galium” value (galium; [26]) of the same molecule?
A: The value was 100.

Q: What about the “Plant response rating, Galium” value (galium; [27]) of the same molecule?
A: Its value is 100.

Q: And the “Plant response rating, Horseweed” value (horseweed; [26])?
A: Its value is 60.

Q: And the “Plant response rating, Horseweed” value (horseweed; [27])?
A: Its value is 30.

Q: And the “Plant response rating, Barnyardgrass (Flood)” value (barnyardgrass [23])?
A: The value was 0.

Q: And the “Plant response rating, Ducksalad (Flood)” value (ducksalad)?
A: The value was 0.

Q: What about the “Plant response rating, Rice (Flood)” value (rice) of the same molecule?
A: The value was 0.

Q: And the “Plant response rating, Sedge, Umbrella (Flood)” value (sedge, umbrella)?
A: Its value is 0.
